The results in this text go back to PubChem BioAssay AID256 (DTP/NCI, 2004).

This test deals with CD2F1 mice, L1210 leukemia ip, survival T/C. Description: NCI In Vivo Anticancer Drug Screen. Data for tumor model L1210 Leukemia (intraperitoneal) in CD2F1 (CDF1) mice. The following applies: higher = longer survival. In outline: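 Transplantable tumor in mice; compound-treated vs vehicle-treated groups. Read-out = treated/control ratio of the measured endpoint.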
The mark [1] stands for this setting: endpoint: mean survival time, dose: 12.5 mg/kg/injection, schedule: Q04DX003 (ip), vehicle: saline sonified.
Where [2] appears, read: endpoint: mean survival time, dose: 25.0 mg/kg/injection, schedule: Q04DX003 (ip), vehicle: saline sonified.
Where [3] appears, read: endpoint: mean survival time, dose: 100.0 mg/kg/injection, schedule: Q04DX003 (ip), vehicle: saline with Tween-80.
Where [4] appears, read: endpoint: mean survival time, dose: 200.0 mg/kg/injection, schedule: Q04DX003 (ip), vehicle: saline with Tween-80.
Setting [5] is: endpoint: mean survival time, dose: 400.0 mg/kg/injection, schedule: Q04DX003 (ip), vehicle: saline with Tween-80.
[6] abbreviates: endpoint: mean survival time, dose: 100.0 mg/kg/injection, schedule: Q01DX001 (ip), vehicle: saline with Tween-80.
[7] abbreviates: endpoint: mean survival time, dose: 200.0 mg/kg/injection, schedule: Q01DX001 (ip), vehicle: saline with Tween-80.
Setting [8] is: endpoint: mean survival time, dose: 400.0 mg/kg/injection, schedule: Q01DX001 (ip), vehicle: saline with Tween-80.
Setting [9] is: endpoint: mean survival time, dose: 100.0 mg/kg/injection, schedule: Q01DX009 (ip), vehicle: saline with Tween-80.
Setting [10] is: endpoint: mean survival time, dose: 200.0 mg/kg/injection, schedule: Q01DX009 (ip), vehicle: saline with Tween-80.
Where [11] appears, read: endpoint: mean survival time, dose: 400.0 mg/kg/injection, schedule: Q01DX009 (ip), vehicle: saline with Tween-80.
[12] abbreviates: endpoint: mean survival time, dose: 12.5 mg/kg/injection, schedule: Q01DX009 (ip), vehicle: saline with Tween-80.
[13] abbreviates: endpoint: mean survival time, dose: 25.0 mg/kg/injection, schedule: Q01DX009 (ip), vehicle: saline with Tween-80.
Where [14] appears, read: endpoint: mean survival time, dose: 50.0 mg/kg/injection, schedule: Q01DX009 (ip), vehicle: saline with Tween-80.

Values joined by “and” are separate entries in the source; they are usually repeats but may differ in a detail not shown here. Equal entries are not always repeated. Inconclusive results and toxic doses are left out.

For `COc1ccc(C2N(C)CCCN2C)c(OC)c1`, the T/C is 103 % of control (endpoint: mean survival time, dose: 6.25 mg/kg/injection, schedule: Q01DX009 (ip), vehicle: saline sonified); 101 % of control (endpoint: mean survival time, dose: 6.25 mg/kg/injection, schedule: Q04DX003 (ip), vehicle: saline sonified); 103 % of control (endpoint: mean survival time, dose: 12.5 mg/kg/injection, schedule: Q01DX009 (ip), vehicle: saline sonified); 108 % of control under setting [1]; 98 % of control (endpoint: mean survival time, dose: 25.0 mg/kg/injection, schedule: Q01DX009 (ip), vehicle: saline sonified); 100 % of control under setting [2].
`O=C(O)/C=C/c1ccccc1C(=O)O`: the T/C (endpoint: mean survival time, dose: 100.0 mg/kg/injection, schedule: Q01DX009 (ip), vehicle: saline) is 103 % of control; the T/C (endpoint: mean survival time, dose: 200.0 mg/kg/injection, schedule: Q01DX009 (ip), vehicle: saline) is 101 % of control; the T/C (endpoint: mean survival time, dose: 400.0 mg/kg/injection, schedule: Q01DX009 (ip), vehicle: saline) is 101 % of control.
On to `CC(=O)c1cc(-c2ccc(C)cc2)nc2c(C)cc(C)cc12`, for which the T/C was 92 % of control under setting [3], 86 % of control under setting [4] and 92 % of control under setting [5].
With `CC(=O)c1cccc(C(=O)O)c1`, the T/C by setting is: under setting [6], 103 % of control; under setting [7], 101 % of control; under setting [8], 103 % of control.
Consider `COC(=O)c1ccc(C2CCC(OC(c3ccccc3)c3ccccc3)CC2)cc1` (centres undefined), for which the T/C under setting [4] was 89 % of control and the T/C under setting [5] is 91 % of control.
As to `CCCCNC(=O)C1C2CCC(C2)C1C(=O)NCCCC` (centres undefined), the T/C runs as follows: under setting [3], 98 % of control; under setting [4], 98 % of control; under setting [5], 90 % of control.
Regarding `CSC(N)=Nc1ccc(C(=O)O)cc1`, the T/C is 100 % of control under setting [3], 94 % of control under setting [4] and 94 % of control under setting [5].
As to `Cc1c[n+]([O-])ccc1Br`, the T/C (endpoint: mean survival time, dose: 25.0 mg/kg/injection, schedule: Q01DX009 (ip), vehicle: water) is 94 % of control; the T/C (endpoint: mean survival time, dose: 50.0 mg/kg/injection, schedule: Q01DX009 (ip), vehicle: water) is 100 % of control; the T/C (endpoint: mean survival time, dose: 100.0 mg/kg/injection, schedule: Q01DX009 (ip), vehicle: water) was 88 % of control.
For the molecule `Cc1ccc(NC(=S)N2CCCC2)cc1`, the T/C under setting [9] was 97 % of control, the T/C under setting [10] is 91 % of control and the T/C under setting [11] is 95 % of control.
On to `C/C(=N/N(C)C)c1ccc2ccccc2c1`, for which the T/C reads like this: under setting [12], 97 % of control; (endpoint: mean survival time, dose: 25.0 mg/kg/injection, schedule: Q01DX001 (ip), vehicle: saline with Tween-80) 103 % of control; under setting [13], 95 % of control; (endpoint: mean survival time, dose: 50.0 mg/kg/injection, schedule: Q01DX001 (ip), vehicle: saline with Tween-80) 97 % of control; under setting [6], 103 % of control.
`CN=C(NC)N/N=C(/c1ccc(Br)cc1)c1ccc(C(F)(F)F)cc1`: the T/C is 90 % of control (endpoint: mean survival time, dose: 12.5 mg/kg/injection, schedule: Q04DX002 (ip), vehicle: saline with Tween-80); 90 % of control (endpoint: mean survival time, dose: 25.0 mg/kg/injection, schedule: Q04DX002 (ip), vehicle: saline with Tween-80); 98 % of control (endpoint: mean survival time, dose: 50.0 mg/kg/injection, schedule: Q04DX003 (ip), vehicle: saline with Tween-80); 97 % of control (endpoint: mean survival time, dose: 100.0 mg/kg/injection, schedule: Q01DX001 (ip), vehicle: saline sonified); 93 % of control (endpoint: mean survival time, dose: 200.0 mg/kg/injection, schedule: Q01DX001 (ip), vehicle: saline sonified).
Turning to `CCCCCCCCCCC(=O)N1CCOCC1`, the T/C is, setting by setting: under setting [14], 87 % of control; under setting [9], 96 % of control.
Regarding `NCCN1c2ccccc2Sc2ccccc21`, the T/C was 105 % of control (endpoint: mean survival time, dose: 12.5 mg/kg/injection, schedule: Q01DX009 (ip), vehicle: other); 98 % of control (endpoint: mean survival time, dose: 25.0 mg/kg/injection, schedule: Q01DX009 (ip), vehicle: other); 113 % of control (endpoint: mean survival time, dose: 50.0 mg/kg/injection, schedule: Q01DX009 (ip), vehicle: other).
With `O=C(O)Cc1cccc2c(=O)cc(-c3ccccc3)oc12`, the T/C is 113 % of control and 109 % of control (endpoint: median survival time, dose: 12.5 mg/kg/injection, schedule: Q01DX009 (ip), vehicle: suspension in saline); 113 % of control and 105 % of control (endpoint: median survival time, dose: 25.0 mg/kg/injection, schedule: Q01DX009 (ip), vehicle: suspension in saline); 112 % of control (endpoint: median survival time, dose: 30.0 mg/kg/injection, schedule: Q01DX009 (ip), vehicle: saline with Tween-80); 100 % of control (endpoint: median survival time, dose: 30.0 mg/kg/injection, schedule: Q01DX009 (ip), vehicle: sodium bicarbonate); 123 % of control (endpoint: median survival time, dose: 44.0 mg/kg/injection, schedule: Q01DX009 (ip), vehicle: saline with Tween-80); 113 % of control (endpoint: median survival time, dose: 44.0 mg/kg/injection, schedule: Q01DX009 (ip), vehicle: sodium bicarbonate). In addition, the T/C is, setting by setting: (endpoint: median survival time, dose: 45.0 mg/kg/injection, schedule: Q01DX009 (ip), vehicle: sodium bicarbonate) 107 % of control; (endpoint: median survival time, dose: 50.0 mg/kg/injection, schedule: Q01DX009 (ip), vehicle: suspension in saline) 116 % of control; (endpoint: median survival time, dose: 67.0 mg/kg/injection, schedule: Q01DX001 (ip), vehicle: sodium bicarbonate) 101 % of control; (endpoint: median survival time, dose: 67.0 mg/kg/injection, schedule: Q01DX009 (ip), vehicle: sodium bicarbonate) 113 % of control and 112 % of control; (endpoint: median survival time, dose: 100.0 mg/kg/injection, schedule: Q01DX001 (ip), vehicle: sodium bicarbonate) 108 % of control; (endpoint: median survival time, dose: 100.0 mg/kg/injection, schedule: Q01DX009 (ip), vehicle: saline with Tween-80) 124 % of control. Also, the T/C (endpoint: median survival time, dose: 100.0 mg/kg/injection, schedule: Q01DX009 (ip), vehicle: sodium bicarbonate) is 119 % of control and 124 % of control; the T/C (endpoint: median survival time, dose: 100.0 mg/kg/injection, schedule: Q01DX009 (ip), vehicle: suspension in saline) was 113 % of control; the T/C (endpoint: median survival time, dose: 150.0 mg/kg/injection, schedule: Q01DX001 (ip), vehicle: sodium bicarbonate) is 112 % of control; the T/C (endpoint: median survival time, dose: 150.0 mg/kg/injection, schedule: Q01DX009 (ip), vehicle: saline with Tween-80) is 108 % of control; the T/C (endpoint: median survival time, dose: 175.0 mg/kg/injection, schedule: Q01DX009 (ip), vehicle: sodium bicarbonate) is 156 % of control; the T/C (endpoint: median survival time, dose: 200.0 mg/kg/injection, schedule: Q01DX009 (ip), vehicle: suspension in saline) was 103 % of control. The T/C (endpoint: median survival time, dose: 223.0 mg/kg/injection, schedule: Q01DX001 (ip), vehicle: sodium bicarbonate) is 108 % of control and the T/C (endpoint: median survival time, dose: 333.0 mg/kg/injection, schedule: Q01DX001 (ip), vehicle: sodium bicarbonate) is 121 % of control.
Turning to `CNN=C1CCCC1`, the T/C is 97 % of control (endpoint: mean survival time, dose: 12.5 mg/kg/injection, schedule: Q01DX009 (ip), vehicle: saline) and 102 % of control (endpoint: mean survival time, dose: 25.0 mg/kg/injection, schedule: Q01DX009 (ip), vehicle: saline).
For the molecule `O=[N+]([O-])C1C2C=CC(C2)C1c1ccccc1` (centres undefined), the T/C is 102 % of control under setting [9]; 98 % of control under setting [3]; 95 % of control under setting [10]; 102 % of control under setting [4]; 98 % of control under setting [11]; 102 % of control under setting [5].
For `NNC(=O)c1ccc(O)cc1`, the T/C runs as follows: under setting [6], 90 % of control; under setting [7], 94 % of control; under setting [8], 96 % of control.
For `O=C(COc1cccc(Cl)c1)NCc1ccccc1NC(=O)Nc1cccc(S(=O)(=O)F)c1`, in that order: 88 % of control, 89 % of control and 94 % of control.
In the case of `CC1CC(O)C(NC(=O)NCCCl)C(O)C1` (centres undefined), the T/C under setting [6] is 102 % of control, the T/C under setting [7] was 102 % of control and the T/C under setting [8] is 110 % of control.
As for `CCCCCCCCCCCCNC(=O)c1ccc[n+](Cc2ccc(Cl)c(Cl)c2)c1`, the T/C reads like this: under setting [12], 98 % of control; under setting [1], 98 % of control; under setting [2], 98 % of control; (endpoint: mean survival time, dose: 50.0 mg/kg/injection, schedule: Q04DX003 (ip), vehicle: saline sonified) 95 % of control.
On to `O=C1C2CCCC3CCCC(C(=O)N1NC1CCCCC1)C32` (centres undefined), for which the T/C is 96 % of control under setting [12], 89 % of control under setting [13], 86 % of control under setting [14] and 88 % of control under setting [9].
